Data as given in US20230172204A1 (BASF SE, priority 2020, published 2023).

What was measured:
[1] = system: Phakopsora pachyrhizi (F129L); test: Protective control of soybean rust on soybeans (PHAKPA P6); type: in vivo; settings: for % PHAKPA (F129L) Disease level P6 at 4 ppm: protective P6, 4 ppm; for % PHAKPA (F129L) Disease level P6 at 4 ppm / % PHAKPA (F129L) Disease level P6 at 16 ppm: soybean rust F129L; for % PHAKPA (F129L) Disease level P6 at 16 ppm: protective P6, 16 ppm; for PHAKPA (F129L) Disease level (%) P6 at 4 ppm / PHAKPA (F129L) Disease level (%) P6 at 16 ppm: P6 protective, % diseased leaf area
[2] = system: Phakopsora pachyrhizi (F129L); test: Protective control of soybean rust on soybeans (PHAKPA P2); type: in vivo; settings: for % PHAKPA (F129L) Disease level P2 at 4 ppm: protective P2, 4 ppm; for % PHAKPA (F129L) Disease level P2 at 4 ppm / % PHAKPA (F129L) Disease level P2 at 16 ppm: soybean rust F129L; for % PHAKPA (F129L) Disease level P2 at 16 ppm: protective P2, 16 ppm
[3] = P2 protective, % diseased leaf area

SMILES | % PHAKPA (F129L) Disease level P6 at 4 ppm [1] [%] | % PHAKPA (F129L) Disease level P6 at 16 ppm [1] [%] | % PHAKPA (F129L) Disease level P2 at 4 ppm [2] [%] | % PHAKPA (F129L) Disease level P2 at 16 ppm [2] [%] | PHAKPA (F129L) Disease level (%) P6 at 4 ppm [1] [%] | PHAKPA (F129L) Disease level (%) P2 at 1 ppm ([2]; P2 protective, 1 ppm, % diseased leaf area) [%] | PHAKPA (F129L) Disease level (%) P6 at 16 ppm [1] [%] | PHAKPA (F129L) Disease level (%) P2 at 16 ppm [2, 3] [%] | PHAKPA (F129L) Disease level (%) P2 at 4 ppm [2, 3] [%]
CO/N=C(/C(=O)OC)c1cccc(C)c1CO/N=C(\C)c1ccccc1Br [compound 119] | 92 | 63 | 93 | 63 |  |  |  |  | 
CO/N=C(/C(=O)OC)c1cccc(C)c1CO/N=C(\C)c1cc(Cl)cc(C(F)(F)F)c1 [compound 33] | 60 | 75 | 50 | 33 |  |  |  |  | 
CNC(=O)/C(=N/OC)c1cccc(C)c1CO/N=C(\SC)c1cccc(C(F)(F)F)c1 [drawing 984, reference compound] |  |  |  |  | 43 | 32 |  |  | 
CNC(=O)/C(=N/OC)c1cccc(C)c1CO/N=C(\C)c1cccc(C#N)c1 [compound 112] | 30 | 9 | 13 | 3 |  |  |  |  | 
CNC(=O)/C(=N/OC)c1cccc(C)c1CO/N=C(\C)c1cccc(-c2cc(C)on2)c1 [compound 42] | 60 | 20 | 60 | 23 |  |  |  |  | 
CNC(=O)/C(=N/OC)c1cccc(C)c1CO/N=C(\C)c1ccc(OC)cc1C(F)(F)F [compound 324] | 12 | 0 | 2 | 1 |  |  |  |  | 
CO/N=C(/C(=O)OC)c1ccccc1CO/N=C(\C)c1cc(Cl)cc(Cl)c1 [reference compound] |  |  |  |  |  |  | 17 | 27 | 
C=Cc1cccc(/C(=N\OC)C(=O)NC)c1CO/N=C(\C)c1cccc(C(F)(F)F)c1 [compound 14] | 11 | 1 | 6 | 0 |  |  |  |  | 
CO/N=C(/C(=O)OC)c1cccc(C)c1CO/N=C(\C)c1cc(C(F)(F)F)ccc1Cl [compound 200] | 100 | 77 | 93 | 73 |  |  |  |  | 
COC=C(C(=O)OC)c1cccc(C)c1CON=C(C)c1cccc(C(F)(F)F)c1 [Ex. 231] | 2 | 0 | 0 | 0 | 2 |  |  |  | 0
CO/N=C(/C(=O)OC)c1cccc(C(F)F)c1CO/N=C(\C)c1cccc(C(F)(F)F)c1 [Ex. 24] | 4 | 28 | 36 | 60 |  |  |  |  | 
CO/C=C(/C(=O)OC)c1cccc(C)c1CO/N=C(\C)c1c(Cl)ccc(F)c1OC(F)(F)F [compound 442] | 80 | 77 | 100 | 93 |  |  |  |  | 
CNC(=O)/C(=N/OC)c1cccc(C)c1CO/N=C(\C)c1ccc(C)c(C)c1 [compound 139] | 72 | 24 | 47 | 2 |  |  |  |  | 
CO/N=C(/C(=O)OC)c1cccc(C)c1CO/N=C(\C)c1cccc(-c2cc(C)on2)c1 [compound 43] | 97 | 87 | 100 | 100 |  |  |  |  | 
CNC(=O)/C(=N/OC)c1cccc(C)c1CO/N=C(\C)c1ccccc1 [Ex. 31] | 4 | 0 | 0 | 0 | 12 |  |  |  | 0
CO/N=C(/C(=O)OC)c1ccccc1CO/N=C(\C)c1cccc(Cl)c1 [reference compound] |  |  |  |  |  |  | 70 | 73 | 
C#Cc1cc(/C(C)=N/OCc2c(C)cccc2/C(=N\OC)C(=O)NC)cc(C(F)(F)F)c1 [compound 148] | 13 | 7 | 9 | 2 |  |  |  |  | 
